According to ChEMBL document CHEMBL5291721, “A preclinical secondary pharmacology resource illuminates target-adverse drug reaction associations of marketed drugs” (Nat Commun, 2023):

What was measured:
Estrogen receptor = molecular target: T1, Estrogen receptor (Homo sapiens, UniProt P03372)
T1 sequence (P03372 whole entry): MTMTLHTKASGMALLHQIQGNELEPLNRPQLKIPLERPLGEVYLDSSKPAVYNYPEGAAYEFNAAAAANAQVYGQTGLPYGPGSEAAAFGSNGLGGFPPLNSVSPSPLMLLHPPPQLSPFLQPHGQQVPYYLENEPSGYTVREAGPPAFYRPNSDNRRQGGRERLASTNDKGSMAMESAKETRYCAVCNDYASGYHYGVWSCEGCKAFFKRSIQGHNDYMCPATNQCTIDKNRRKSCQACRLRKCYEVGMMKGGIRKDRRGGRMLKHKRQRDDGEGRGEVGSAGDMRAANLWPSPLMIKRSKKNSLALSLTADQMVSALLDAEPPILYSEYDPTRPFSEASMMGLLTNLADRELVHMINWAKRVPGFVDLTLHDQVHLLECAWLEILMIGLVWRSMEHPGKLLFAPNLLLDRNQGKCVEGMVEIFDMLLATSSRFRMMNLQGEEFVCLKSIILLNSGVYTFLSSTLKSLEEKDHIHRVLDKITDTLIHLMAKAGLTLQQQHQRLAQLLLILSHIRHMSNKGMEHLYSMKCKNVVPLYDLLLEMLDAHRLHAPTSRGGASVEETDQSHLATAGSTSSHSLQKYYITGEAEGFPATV

[1] = molecular target: Growth hormone secretagogue receptor type 1 (Homo sapiens, UniProt Q92847)
Vasopressin V2 receptor = Vasopressin V2 receptor (Homo sapiens, UniProt P30518)
[2] = molecular target: Muscarinic acetylcholine receptor M3 (Homo sapiens, UniProt P20309)
Motilin receptor = Motilin receptor (Homo sapiens, UniProt O43193)
[3] = molecular target: Beta-2 adrenergic receptor (Homo sapiens, UniProt P07550)
Adenosine receptor A1 = molecular target: T2, Adenosine receptor A1 (Homo sapiens, UniProt P30542)
T2 sequence (P30542 whole entry): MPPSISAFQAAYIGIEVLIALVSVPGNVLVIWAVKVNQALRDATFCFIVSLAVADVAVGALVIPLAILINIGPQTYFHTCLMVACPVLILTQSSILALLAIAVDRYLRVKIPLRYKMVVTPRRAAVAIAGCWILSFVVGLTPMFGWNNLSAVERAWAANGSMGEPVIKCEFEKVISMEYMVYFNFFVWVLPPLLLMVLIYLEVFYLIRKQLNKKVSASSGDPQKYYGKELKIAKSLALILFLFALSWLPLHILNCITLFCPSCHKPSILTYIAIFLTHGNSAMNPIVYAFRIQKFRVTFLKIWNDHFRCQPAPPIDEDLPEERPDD

[4] = molecular target: T3, 5-hydroxytryptamine receptor 1A (Homo sapiens, UniProt P08908); format: functional, cell-based
T3 sequence (P08908 whole entry): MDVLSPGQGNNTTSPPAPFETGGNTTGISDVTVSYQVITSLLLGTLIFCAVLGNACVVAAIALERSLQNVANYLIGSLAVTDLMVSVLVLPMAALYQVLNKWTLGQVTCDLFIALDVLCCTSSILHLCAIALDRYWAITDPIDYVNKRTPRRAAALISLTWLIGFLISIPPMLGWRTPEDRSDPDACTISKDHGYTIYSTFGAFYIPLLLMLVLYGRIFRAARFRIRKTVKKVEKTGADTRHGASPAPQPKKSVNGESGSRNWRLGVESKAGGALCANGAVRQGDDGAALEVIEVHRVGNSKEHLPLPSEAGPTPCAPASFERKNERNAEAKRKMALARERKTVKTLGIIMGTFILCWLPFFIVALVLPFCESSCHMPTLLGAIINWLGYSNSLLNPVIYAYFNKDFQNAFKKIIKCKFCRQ

[5] = molecular target: T3, 5-hydroxytryptamine receptor 1A
[6] = molecular target: T4, Corticotropin-releasing factor receptor 1 (Homo sapiens, UniProt P34998)
T4 sequence (P34998 whole entry): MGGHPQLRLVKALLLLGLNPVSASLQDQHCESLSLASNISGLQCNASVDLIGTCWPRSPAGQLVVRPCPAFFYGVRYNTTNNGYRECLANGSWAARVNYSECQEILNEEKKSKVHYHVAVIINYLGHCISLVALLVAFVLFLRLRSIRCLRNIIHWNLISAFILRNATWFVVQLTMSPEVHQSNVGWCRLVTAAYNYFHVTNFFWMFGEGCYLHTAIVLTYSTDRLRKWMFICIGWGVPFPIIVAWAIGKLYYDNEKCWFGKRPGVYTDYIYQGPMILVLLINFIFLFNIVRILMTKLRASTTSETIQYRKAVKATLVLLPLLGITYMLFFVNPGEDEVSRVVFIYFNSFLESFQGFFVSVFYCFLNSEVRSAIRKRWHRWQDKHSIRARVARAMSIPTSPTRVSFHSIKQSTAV

D(1A) dopamine receptor = D(1A) dopamine receptor (Homo sapiens, UniProt P21728)
B1 bradykinin receptor = molecular target: T5, B1 bradykinin receptor (Homo sapiens, UniProt P46663)
T5 sequence (P46663 whole entry): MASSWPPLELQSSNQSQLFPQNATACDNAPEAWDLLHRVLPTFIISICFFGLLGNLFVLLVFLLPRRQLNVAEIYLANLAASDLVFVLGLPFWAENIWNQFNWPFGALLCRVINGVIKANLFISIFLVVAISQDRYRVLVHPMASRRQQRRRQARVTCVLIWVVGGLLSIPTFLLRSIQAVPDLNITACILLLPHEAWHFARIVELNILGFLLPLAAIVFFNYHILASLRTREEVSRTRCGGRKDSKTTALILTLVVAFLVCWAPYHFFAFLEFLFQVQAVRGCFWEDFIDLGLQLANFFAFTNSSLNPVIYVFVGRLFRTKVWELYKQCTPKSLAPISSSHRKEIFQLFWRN

[7] = molecular target: Beta-3 adrenergic receptor (Homo sapiens, UniProt P13945)
Further: assay procedure not described here.

Sequence of Muscarinic acetylcholine receptor M3 (P20309 whole entry): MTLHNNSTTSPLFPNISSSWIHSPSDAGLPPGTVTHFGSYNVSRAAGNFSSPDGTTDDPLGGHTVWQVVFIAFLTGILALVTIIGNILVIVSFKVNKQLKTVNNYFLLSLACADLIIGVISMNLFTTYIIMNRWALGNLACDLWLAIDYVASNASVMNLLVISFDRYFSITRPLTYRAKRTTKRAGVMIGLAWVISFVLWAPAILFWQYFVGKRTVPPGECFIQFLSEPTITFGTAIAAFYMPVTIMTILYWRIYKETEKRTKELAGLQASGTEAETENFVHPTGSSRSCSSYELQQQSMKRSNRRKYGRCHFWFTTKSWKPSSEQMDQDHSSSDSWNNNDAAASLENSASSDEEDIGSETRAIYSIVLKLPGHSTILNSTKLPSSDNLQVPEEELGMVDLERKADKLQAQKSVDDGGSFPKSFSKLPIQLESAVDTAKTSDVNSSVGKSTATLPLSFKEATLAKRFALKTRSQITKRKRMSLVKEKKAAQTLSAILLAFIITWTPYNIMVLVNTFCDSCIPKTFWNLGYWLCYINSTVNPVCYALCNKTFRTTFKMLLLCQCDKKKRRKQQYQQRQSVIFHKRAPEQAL
Sequence of Growth hormone secretagogue receptor type 1 (Q92847 whole entry): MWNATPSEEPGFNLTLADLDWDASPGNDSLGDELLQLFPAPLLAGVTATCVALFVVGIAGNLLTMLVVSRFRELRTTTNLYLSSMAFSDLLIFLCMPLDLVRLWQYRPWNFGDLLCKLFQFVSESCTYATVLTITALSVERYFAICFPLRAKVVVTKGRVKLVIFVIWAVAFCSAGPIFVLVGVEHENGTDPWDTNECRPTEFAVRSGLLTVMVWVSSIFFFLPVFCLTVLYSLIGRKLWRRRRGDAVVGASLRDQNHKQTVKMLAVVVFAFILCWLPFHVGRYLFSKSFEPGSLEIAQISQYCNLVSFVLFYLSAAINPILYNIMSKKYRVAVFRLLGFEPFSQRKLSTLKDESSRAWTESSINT
Sequence of Vasopressin V2 receptor (P30518 whole entry): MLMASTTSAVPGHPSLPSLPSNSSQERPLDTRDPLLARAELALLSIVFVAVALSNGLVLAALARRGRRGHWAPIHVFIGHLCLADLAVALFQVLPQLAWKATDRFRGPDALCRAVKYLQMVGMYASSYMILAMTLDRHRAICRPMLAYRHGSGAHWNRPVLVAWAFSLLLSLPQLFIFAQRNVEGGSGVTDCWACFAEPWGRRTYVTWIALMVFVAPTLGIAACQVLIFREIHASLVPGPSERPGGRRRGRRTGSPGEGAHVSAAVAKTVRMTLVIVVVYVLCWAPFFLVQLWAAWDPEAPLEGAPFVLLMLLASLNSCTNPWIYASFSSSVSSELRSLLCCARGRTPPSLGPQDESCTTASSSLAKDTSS
Sequence of Beta-3 adrenergic receptor (P13945 whole entry): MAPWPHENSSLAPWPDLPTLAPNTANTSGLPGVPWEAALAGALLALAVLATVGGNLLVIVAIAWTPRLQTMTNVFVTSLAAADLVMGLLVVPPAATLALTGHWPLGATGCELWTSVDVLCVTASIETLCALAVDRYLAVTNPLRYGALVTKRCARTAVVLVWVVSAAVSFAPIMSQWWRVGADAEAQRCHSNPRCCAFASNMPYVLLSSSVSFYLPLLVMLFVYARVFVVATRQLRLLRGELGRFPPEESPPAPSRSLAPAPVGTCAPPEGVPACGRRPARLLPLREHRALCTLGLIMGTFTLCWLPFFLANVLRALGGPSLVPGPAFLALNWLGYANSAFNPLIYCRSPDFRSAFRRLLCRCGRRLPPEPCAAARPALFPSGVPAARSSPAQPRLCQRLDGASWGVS
Sequence of Motilin receptor (O43193 whole entry): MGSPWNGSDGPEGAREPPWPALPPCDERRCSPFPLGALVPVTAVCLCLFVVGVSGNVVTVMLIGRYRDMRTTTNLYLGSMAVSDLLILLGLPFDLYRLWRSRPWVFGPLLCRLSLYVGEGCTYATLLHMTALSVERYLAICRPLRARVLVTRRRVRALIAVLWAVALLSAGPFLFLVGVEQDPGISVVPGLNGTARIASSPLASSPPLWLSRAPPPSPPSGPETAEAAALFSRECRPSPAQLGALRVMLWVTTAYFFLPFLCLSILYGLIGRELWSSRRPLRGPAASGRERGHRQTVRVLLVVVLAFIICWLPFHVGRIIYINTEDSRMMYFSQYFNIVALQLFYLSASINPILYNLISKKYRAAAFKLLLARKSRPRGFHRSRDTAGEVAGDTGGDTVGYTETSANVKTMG
Sequence of Beta-2 adrenergic receptor (P07550 whole entry): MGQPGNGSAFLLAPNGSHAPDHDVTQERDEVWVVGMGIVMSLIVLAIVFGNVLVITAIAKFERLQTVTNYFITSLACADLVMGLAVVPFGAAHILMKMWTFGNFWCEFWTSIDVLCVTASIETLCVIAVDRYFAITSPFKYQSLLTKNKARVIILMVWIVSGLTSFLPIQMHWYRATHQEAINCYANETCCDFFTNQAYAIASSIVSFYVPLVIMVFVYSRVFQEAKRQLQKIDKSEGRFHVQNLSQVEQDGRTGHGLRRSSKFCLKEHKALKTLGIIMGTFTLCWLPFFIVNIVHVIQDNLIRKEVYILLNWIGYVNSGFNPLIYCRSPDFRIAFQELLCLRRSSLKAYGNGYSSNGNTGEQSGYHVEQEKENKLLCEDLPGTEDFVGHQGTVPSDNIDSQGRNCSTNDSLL
Sequence of D(1A) dopamine receptor (P21728 whole entry): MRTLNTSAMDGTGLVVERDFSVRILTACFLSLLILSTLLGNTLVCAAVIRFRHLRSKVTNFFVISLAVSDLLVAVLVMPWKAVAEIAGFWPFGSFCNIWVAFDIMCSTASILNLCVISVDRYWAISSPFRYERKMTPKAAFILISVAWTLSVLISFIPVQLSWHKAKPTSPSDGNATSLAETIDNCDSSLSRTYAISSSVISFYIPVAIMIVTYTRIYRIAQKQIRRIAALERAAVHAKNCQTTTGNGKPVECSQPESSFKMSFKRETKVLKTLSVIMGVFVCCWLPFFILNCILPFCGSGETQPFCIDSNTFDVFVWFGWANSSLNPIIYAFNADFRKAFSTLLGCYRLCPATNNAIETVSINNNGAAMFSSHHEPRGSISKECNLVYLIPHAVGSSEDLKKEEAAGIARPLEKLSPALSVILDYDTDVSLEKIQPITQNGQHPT

| Compound | AC50 (Estrogen receptor) [µM] | AC50 [1] [µM] | AC50 (Vasopressin V2 receptor) [µM] | AC50 [2] [µM] | AC50 (Motilin receptor) [µM] | AC50 [3] [µM] | AC50 (Adenosine receptor A1) [µM] | AC50 [4] [µM] | AC50 [5] [µM] | AC50 [6] [µM] | AC50 (D(1A) dopamine receptor) [µM] | AC50 (B1 bradykinin receptor) [µM] | AC50 [7] [µM] |
| --- | --- | --- | --- | --- | --- | --- | --- | --- | --- | --- | --- | --- | --- |
| NS(=O)(=O)c1cc(-c2nnn[nH]2)c(NCc2cccs2)cc1Cl [AZOSEMIDE] | > 30 | > 30 | > 30 | > 30 | > 30 | > 30 |  |  |  |  |  |  |  |
| CCS(=O)(=O)N1CC(CC#N)(n2cc(-c3ncnc4[nH]ccc34)cn2)C1 [BARICITINIB] |  |  |  |  |  |  | > 30 |  |  |  |  |  |  |
| C[N+](C)(C)CC(=O)O [BETAINE] | > 30 | > 30 | > 30 | > 30 | > 30 | > 30 |  | > 30 |  |  |  |  |  |
| CCCC(=O)N1CCCN(c2nc(N)c3cc(OC)c(OC)cc3n2)CC1 [BUNAZOSIN] | > 30 | > 30 | > 30 | > 30 | > 30 |  |  | > 30 |  |  |  |  |  |
| C[N+](C)(C)CCOC(N)=O [CARBAMOYLCHOLINE] |  | > 10 | > 10 |  | > 10 | > 10 |  | > 30 | > 10 |  |  |  |  |
| N[C@@H](CSCC(=O)O)C(=O)O [CARBOCYSTEINE] | > 30 | > 30 | > 30 | > 30 | > 30 | > 30 |  | > 30 |  |  |  |  |  |
| NCc1ccccc1CC(=O)N[C@@H]1C(=O)N2C(C(=O)O)=C(CSc3nnnn3CC(=O)O)CS[C@H]12 [CEFORANIDE] |  |  |  |  |  |  | > 30 |  |  |  |  |  |  |
| CC(C)(N)Cc1ccc(Cl)cc1 [CHLORPHENTERMINE] | > 30 | > 30 | > 30 | > 30 | > 10 | > 10 |  | > 10 | > 10 | > 30 | > 10 | > 30 | > 30 |
| Nc1nc(-n2cc(C(=O)O)c(=O)c3cc(F)c(N4CC(O)C4)c(Cl)c32)c(F)cc1F [DELAFLOXACIN] |  |  |  |  |  |  | > 30 |  |  |  |  |  |  |
| CN(C)[C@@H]1C(O)=C(C(N)=O)C(=O)[C@@]2(O)C(O)=C3C(=O)c4c(O)ccc(Cl)c4[C@@H](O)[C@H]3C[C@@H]12 [DEMECLOCYCLINE] |  | > 10 | > 10 | > 30 | > 10 | > 10 |  | > 10 |  |  |  |  |  |
| NS(=O)(=O)c1cc(Cl)c(Cl)c(S(N)(=O)=O)c1 [DICHLORPHENAMIDE] |  | > 10 | > 10 | > 30 | > 10 | > 10 |  | > 10 |  |  |  |  |  |
| O=C(Nc1ccccc1)OCC(CN1CCCCC1)OC(=O)Nc1ccccc1 (centres undefined) [DIPERODON] | > 30 | > 30 | > 30 | > 10 | > 10 | > 10 |  | > 10 | > 10 | > 30 | > 10 | > 30 | > 30 |
| CC1=NN(c2ccccc2)C(=O)C1 [EDARAVONE] |  |  |  |  |  |  | > 30 |  |  |  |  |  |  |
| C=C1C[C@@H]2[C@H](CC[C@]3(C)C(=O)CC[C@@H]23)[C@@]2(C)C=CC(=O)C=C12 [EXEMESTANE] | > 30 | > 30 | > 30 | > 30 | > 10 | > 10 |  | > 10 | > 10 | > 30 |  | > 30 | > 30 |
| CC(C)=CCC1C(=O)N(c2ccccc2)N(c2ccccc2)C1=O [FEPRAZONE] |  |  |  |  |  |  | > 30 |  |  |  |  |  |  |
| CC(C(O)c1ccc(O)cc1)N1CCC(Cc2ccccc2)CC1 (centres undefined) [IFENPRODIL] | > 30 | > 30 | > 30 | > 30 | > 30 | > 30 |  |  |  |  |  |  |  |
| CC(=O)N(CC(O)CO)c1c(I)c(C(=O)NCC(O)CO)c(I)c(C(=O)NCC(O)CO)c1I (centres undefined) [IOHEXOL] | > 30 | > 30 | > 30 | > 30 | > 10 | > 30 |  | > 10 | > 10 |  |  |  |  |
| CN(CCCN1c2ccccc2CCc2ccccc21)CC(=O)c1ccc(Cl)cc1 [LOFEPRAMINE] | > 30 | 25 | > 30 |  | > 30 | 20 |  |  |  |  |  |  |  |
| CCOC(=O)CC(SP(=S)(OC)OC)C(=O)OCC (centres undefined) [MALATHION] |  |  |  |  |  |  | 11.5 |  |  |  |  |  |  |
| Cn1cc[nH]c1=S [METHIMAZOLE] |  |  |  |  |  |  | > 30 |  |  |  |  |  |  |
| CN(C/C=C/c1ccccc1)Cc1cccc2ccccc12 [NAFTIFINE] | > 30 | > 30 | > 30 | > 30 | > 10 | > 30 |  | > 10 |  |  |  |  |  |
| NC(=O)c1cccc2cn(-c3ccc([C@@H]4CCCNC4)cc3)nc12 [NIRAPARIB] |  |  |  |  |  |  | > 30 |  |  |  |  |  |  |
| CC(C)NCC1CCc2cc(CO)c([N+](=O)[O-])cc2N1 (centres undefined) [OXAMNIQUINE] | > 10 | > 10 | > 10 | > 30 | > 10 | > 10 |  | > 30 |  |  |  |  |  |
| CN(C)CCCN1c2ccccc2Sc2ccccc21 [PROMAZINE] |  | > 30 | > 30 |  | > 10 | 7.6 |  | > 10 | 4.37 | > 30 | 1.08 | > 30 | > 30 |
| O=P(O)(O)C(O)(Cc1cccnc1)P(=O)(O)O [RISEDRONIC ACID] | > 30 | > 30 | > 30 |  | > 30 | > 30 |  | > 10 | > 10 | > 30 | > 10 | > 30 | > 30 |
| O=C1CCC(N2C(=O)c3ccccc3C2=O)C(=O)N1 (centres undefined) [THALIDOMIDE] |  | > 30 | > 30 |  | > 10 | > 10 |  | > 10 | > 10 | > 30 | > 10 | > 30 | > 30 |
| COc1cc(NCc2ccc3nc(N)nc(N)c3c2C)cc(OC)c1OC [TRIMETREXATE] |  |  |  |  |  |  | > 30 |  |  |  |  |  |  |
| CC(=O)N[C@H]1[C@H]([C@H](O)[C@H](O)CO)OC(C(=O)O)=C[C@@H]1N=C(N)N [ZANAMIVIR] | > 30 | > 30 | > 30 | > 30 | > 30 | > 30 |  | > 30 |  |  |  |  |  |
